This is an account of results in patent EP1571449A1 (priority 2004, dated 2005).

Like-named read-outs stand apart in the source and are kept apart here.

Test [1] has as its target plasma PrP^C (Homo sapiens, UniProt P04156). Conditions: plasma mixed with 400 µM CuCl2, copper containing gradient, 16 h at 100,000 x g, 4 °C.
Test [2] has as its target PrP^C (Homo sapiens, UniProt P04156). In kind it is binding.

For `[Cl][Cu][Cl]` [CuCl2], the “migration pattern of PrP^C immunoreactivity in sucrose gradient” value in test [1] is reported as “the high molecular weight peak, present in EDTA plasma, disappeared”. Further, in test [2], the “PrP^C detection, assay 2” value was “much more improved detection of PrP^C” and the “PrP^C detection, assay 3” value is “slightly worse detection of PrP^C as compared to assay 2”. Moreover, the “effect on detection of bound prion proteins (assay sensitivity)” value in test [2] (15 min) is “improvement in sensitivity”.
With `O=S(=O)([O-])[O-].[Cu+2]` [CuSO4], in test [2], the “dose relation of the effect on assay sensitivity” value is given as “dose-related effects on the assay sensitivity”, the “effect on detection of bound prion proteins (assay sensitivity)” value is reported as “improvement in sensitivity”, the increase in sensitivity entry is reported as “more than 3000 fold” and the “plasma dilution at which twice the backgound signal was detected” value amounted to 156250 times diluted.
Turning to `O=C(O)CN(CCN(CC(=O)O)CC(=O)O)CC(=O)O` [EDTA, reference compound], in test [2], the “PrP^C detection, assay 4” value is recorded as “blocking effects”; the “PrP^C detection, assay 5” value was “complete inhibition of the copper effects”; the “PrP^C detection, assay 6” value is listed as “the copper-induced changes of PrP^C disappeared”; the “PrP^C detection, assay 7” value is given as “improved detection of PrP^C was observed”. Moreover, the “effect of EDTA on the copper-induced assay sensitivity increase” value in test [2] was “dose-related reduction of copper-induced assay sensitivity increase”.
For `OO` [H2O2, hydrogen peroxide], in test [2], the “dose relation of the effect on assay sensitivity” value is recorded as “dose-related effects on the assay sensitivity” and the “effect on detection of bound prion proteins (assay sensitivity)” value was “enhanced the detection of bound prion proteins”.
Regarding `[Cl][Mn][Cl]` [MnCl2], in test [2], the “effect on detection of bound prion proteins (assay sensitivity)” value is “improvement in sensitivity” and the “times higher concentration needed for the same signal increasing effect as compared to zinc” value is given as “about 12 times”.
Regarding `O=S(=O)([O-])[O-].[Zn+2]` [ZnSO4], the “effect on detection of bound prion proteins (assay sensitivity)” value in test [2] was “improvement in sensitivity”.
Take `O=CO` [formic acid]: the “effect on detection of bound prion proteins (assay sensitivity)” value in test [2] was “had no effect on the assay”.
